# Reference: ChEMBL document CHEMBL1146748, “Synthesis and preliminary biological evaluation of truncated zoanthenol analogues” (Bioorg Med Chem Lett, 2004)
# Tested on: MH60
# Assay: Compound was tested for inhibition of interleukin-6-dependent MH60 cell growth
# Format: functional, cell-based
# Settings: Mus musculus
row,Compound,IC50 [µM]
1,CC1=CC(=O)[C@H]2CC(=O)[C@H]3[C@@](C)(CC4=[N+]5C[C@H]6C[C@H](C)C[C@]5(CC[C@@]4(C)[C@@]3(C)CC(=O)O)O6)[C@@H]2C1,13
2,CCCCC1=C(C)C(=O)[C@](C)(CN2c3ccccc3[C@]3(O)CCOC23)C1=O (stereo partly specified) [MADINDOLINE A],8
3,CC1=CC(=O)[C@@H]2[C@@H](C1)[C@]1(C)CC3=[N+]4C[C@H]5C[C@H](C)C[C@]4(CC[C@@]3(C)[C@@](C)(CC(=O)O)[C@H]1C(=O)[C@@H]2C)O5,26
4,C[C@H]1C[C@@H]2C[N+]3=C4CCC[C@](C)(CC(=O)O)[C@]4(C)CC[C@@]3(C1)O2,~70

# Tested on: MH60
# Assay: Compound was tested for inhibition of interleukin-6-dependent MH60 cell growth; Very weak inhibition
# Format: functional, cell-based
# Settings: not given
row,Compound,IC50
1,Cc1cc(O)c2c(c1)[C@]1(C)CC(=O)[C@@]3(C)CCCC[C@@]3(C)[C@@]1(C)C(=O)[C@@H]2C,Very weak inhibition
2,C[C@H]1C[C@@H]2CN3C45CCC[C@](C)(CC(=O)O4)[C@]5(C)CC[C@@]3(C1)O2,Very weak inhibition
